Here are results for four compounds from BindingDB's records for doi:10.1074/jbc.M807947200 (National Yang-Ming University, 2009).

For one experiment, the target named is Genome polyprotein (Coxsackievirus B3 (strain Nancy), UniProt P03313). Put plainly: Enzyme Inhibition Assay. As to conditions: pH 6.5; 25 °C. The method, then:
(§1) Peptidomimetic inhibitors against CVB3 3Cpro and SARS-CoV 3CLpro. The inhibition constant of SARS 3CLpro was analyzed with reverse-phase HPLC using a C-18 column.

Experiment [1] deals with Replicase polyprotein 1ab (Severe acute respiratory syndrome coronavirus, UniProt P0C6X7). The experiment in a line: Enzyme Inhibition Assay. To be noted: pH 6.5; 25 °C. As to the method:
as §1

Sequence of Genome polyprotein (P03313 1541-1723 limits assumed): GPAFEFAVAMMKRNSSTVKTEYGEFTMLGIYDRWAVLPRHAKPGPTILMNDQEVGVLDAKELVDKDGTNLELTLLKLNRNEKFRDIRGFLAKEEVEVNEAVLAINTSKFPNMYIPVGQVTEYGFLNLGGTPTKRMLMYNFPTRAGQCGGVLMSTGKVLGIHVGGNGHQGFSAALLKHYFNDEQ

Take `CC(=O)CC=C(C[C@@H]1CCNC1=O)NC(=O)[C@H](CC(C)C)NC(=O)[C@H](CNC(=O)C(C)(C)C)NC(=O)OCc1ccccc1` [TG-0204998]: at Genome polyprotein, the Ki is 800 nM.

`CC(C)C[C@H](NC(=O)[C@@H](NC(=O)OCc1ccccc1)C(C)OC(C)(C)C)C(=O)NC(=CCC(=O)C1CC1)C[C@@H]1CCNC1=O` (stereo partly specified) [TG-0205486] displayed a Ki on Genome polyprotein of 400 nM.

Consider `C[C@H](OC(C)(C)C)[C@H](NC(=O)OCc1ccccc1)C(=O)N[C@@H](CC1CCCCC1)C(=O)N[C@H](C=O)C[C@@H]1CCNC1=O` [benzyl N-[(1S,2S)-2-(tert-butoxy)-1-{[(1S)-2-cyclohexyl-1-{[(2S)-1-oxo-3-[(3S)-2-oxopyrrolidin-3-yl]propan-2-yl]carbamoyl}ethyl]carbamoyl}propyl]carbamate], for which the Ki at Genome polyprotein stood at 2500 nM; in experiment [1], 54 nM.

For the compound `CCOC(=O)/C=C/[C@H](C[C@@H]1CCNC1=O)NC(=O)[C@H](CC(C)C)NC(=O)[C@@H](NC(=O)OCc1ccccc1)C(C)OC(C)(C)C` (stereo partly drawn) [ethyl (2E,4S)-4-[(2S)-2-[(2S,3S)-2-{[(benzyloxy)carbonyl]amino}-3-(tert-butoxy)butanamido]-4-methylpentanamido]-5-[(3S)-2-oxopyrrolidin-3-yl]pent-2-enoate], the results for the Ki (on Genome polyprotein; in experiment [1]) were 1500 nM and 58 nM, respectively.
